Laboratory results from ChEMBL document CHEMBL1201862, “PubChem BioAssay data set” (2004).
Activity calls are given as the source filed them.

What was measured:
[1] = alpha-synuclein stem-loop translation blockers – luminescence, H4 neuroglioblastoma cells, dose confirmation, confirmation (AID 2454); format: functional, cell-based;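 also: H4 neuroglioblastoma cells carrying an alpha-synuclein 5'UTR luciferase reporter; potency for inhibition of the luciferase signal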
BJ [2] = experiment: BJ-TERT fibroblast viability loss – cell-based, RAS-independent, luminescence, dose response (AID 1933); format: functional; settings: Homo sapiens
cells = format: functional, cell-based
Vero [3] = experiment: cells; format: functional; settings: Chlorocebus sabaeus
[4] = system: Streptococcus sp. 'group A'; experiment: Streptococcus pyogenes SK(-)GAS viability under kanamycin – luminescence, BacTiterGlo, confirmation, counter-screen for streptokinase expression inhibitor project, dose response (AID 1900); format: functional, organism-based
[5] = alpha-synuclein stem-loop luciferase translation blockers – H4 neuroglioma cells, luminescence, confirmation (AID 1988); format: functional, cell-based
Streptococcus = experiment: GAS UMAA2166 growth inhibition – luminescence, BacTiterGlo, counter-screen for streptokinase expression inhibitor project, dose response (AID 1915); format: functional, organism-based;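 also: potency for reduction of bacterial viability or growth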
[6] = MIN6 cell viability loss – mouse insulinoma, cytotoxicity control, dose response (AID 2122); format: functional;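 also: confirmatory high-throughput counterscreen run to flag cytotoxic compounds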
Vero [7] = experiment: cells; format: functional, cell-based; settings: Chlorocebus sabaeus
BJ [8] = experiment: cells; format: functional, cell-based; settings: Homo sapiens
BJ [9] = experiment: BJ-TERT-LT-ST fibroblast viability loss – cell-based, RAS-independent, luminescence, dose response (AID 1935); format: functional; settings: Homo sapiens;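 also: BJ fibroblasts immortalized with TERT plus LT and ST oncogenes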
[10] = luciferase reporter signal reduction – luminescence, H4-C neuroglioblastoma cells, dose response (AID 2458); format: functional, cell-based;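 also: H4 neuroglioblastoma cells stably carrying a luciferase reporter gene fusion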
[11] = Counterscreen for AddAB inhibitors: absorbance-based bacterial cell-based high throughput dose response assay for inhibitors of bacterial viability. [Related pubchem assays (depositor defined):AID435030, AID449728, AID449731, AID488942, AID488955, AID488956]; format: functional
[12] = HEK-293T viability loss after treatment – luminescence, T-cell screen hits, cytotoxicity control for TCR NF-kB inhibitor project, dose response (AID 489026); format: functional, cell-based;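 also: cells exposed to compound about 14 hours before the viability readout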
[13] = molecular target: Heat shock protein HSP 90-alpha (Homo sapiens, UniProt P07900); format: functional, organism-based
BJ [14] = experiment: growth inhibition of engineered Ras-driven BJ cells – cell-based, alamar blue fluorescence, cherrypicked samples, dose response (AID 2631); format: functional; settings: Homo sapiens;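 also: confirmatory dose-response assay in RAS-dependent BJ fibroblasts engineered with TERT, LT and ST, with cytotoxicity read by fluorescence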
[15] = luciferase reporter signal suppression in cells – H4 neuroglioma cells, luminescence, dose response (AID 1990); format: functional, cell-based
[16] = molecular target: T1, Heat shock factor protein 1 (Mus musculus, UniProt P38532); experiment: enhancement of HSF1-driven luciferase signal – cell-based, NIH3T3, luminescence, dose retest, confirmation (AID 435004); format: functional;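 also: stress induced by proteasome inhibitor MG132 added 30 min after compound; luciferase reporter driven by HSF1 response element in NIH3T3 cells; actives raise luminescence as potentiators of the MG132 stress response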
T1 sequence (P38532 whole entry): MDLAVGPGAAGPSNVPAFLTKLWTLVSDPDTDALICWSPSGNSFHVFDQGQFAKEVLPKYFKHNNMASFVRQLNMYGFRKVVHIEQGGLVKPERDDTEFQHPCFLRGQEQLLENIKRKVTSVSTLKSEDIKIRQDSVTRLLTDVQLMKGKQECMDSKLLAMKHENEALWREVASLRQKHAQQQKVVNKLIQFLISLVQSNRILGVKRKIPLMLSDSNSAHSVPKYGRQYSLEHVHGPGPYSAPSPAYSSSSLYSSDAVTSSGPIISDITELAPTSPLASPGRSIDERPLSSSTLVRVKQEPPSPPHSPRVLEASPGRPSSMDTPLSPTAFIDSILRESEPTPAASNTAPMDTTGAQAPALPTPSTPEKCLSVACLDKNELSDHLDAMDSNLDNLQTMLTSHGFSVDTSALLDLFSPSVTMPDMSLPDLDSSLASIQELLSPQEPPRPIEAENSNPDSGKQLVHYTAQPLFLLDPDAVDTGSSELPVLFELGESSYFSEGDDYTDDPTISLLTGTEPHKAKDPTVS

[17] = decrease of insulin promoter-GFP reporter – imaging, high-content screening, mouse beta cells (AID 1628); format: functional; settings: MIN6
[18] = Luminescence Cell-Based Dose Response HTS to Identify Inhibitors of 5'UTR Stem-Loop Driven Prion Protein mRNA Translation in H4 Neuroglioblastoma Cells. [Related pubchem assays: 1827 (Project Summary), 1813 (Primary HTS)]; format: functional
Exodeoxyribonuclease V = Exodeoxyribonuclease V (Escherichia coli (strain K12), UniProt P04993+P07648+P08394); experiment: RecBCD inhibition via phage-restricted bacterial growth – absorbance, V66 E. coli, mutant T4 phage, counter-screen for AddAB inhibitor project, dose response (AID 492957); format: functional, cell-based, Escherichia coli str. K-12 substr. MG1655
Exodeoxyribonuclease V, sequence (P04993 whole entry): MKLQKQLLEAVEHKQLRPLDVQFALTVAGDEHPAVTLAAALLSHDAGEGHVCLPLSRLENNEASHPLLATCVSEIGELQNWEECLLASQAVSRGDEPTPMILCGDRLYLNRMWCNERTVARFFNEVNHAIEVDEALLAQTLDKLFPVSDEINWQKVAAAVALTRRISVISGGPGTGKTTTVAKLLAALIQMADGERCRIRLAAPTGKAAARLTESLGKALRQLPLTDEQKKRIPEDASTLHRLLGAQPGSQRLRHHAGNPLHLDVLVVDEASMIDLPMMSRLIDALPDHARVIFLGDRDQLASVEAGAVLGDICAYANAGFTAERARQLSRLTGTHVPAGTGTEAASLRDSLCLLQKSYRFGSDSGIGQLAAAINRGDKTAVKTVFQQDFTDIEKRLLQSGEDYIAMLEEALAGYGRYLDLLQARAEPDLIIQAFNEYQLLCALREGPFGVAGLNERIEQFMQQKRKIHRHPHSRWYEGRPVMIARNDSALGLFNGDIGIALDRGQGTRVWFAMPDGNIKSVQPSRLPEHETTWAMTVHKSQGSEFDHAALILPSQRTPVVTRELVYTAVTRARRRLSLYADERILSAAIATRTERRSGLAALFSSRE
Exodeoxyribonuclease V, sequence (P07648 whole entry): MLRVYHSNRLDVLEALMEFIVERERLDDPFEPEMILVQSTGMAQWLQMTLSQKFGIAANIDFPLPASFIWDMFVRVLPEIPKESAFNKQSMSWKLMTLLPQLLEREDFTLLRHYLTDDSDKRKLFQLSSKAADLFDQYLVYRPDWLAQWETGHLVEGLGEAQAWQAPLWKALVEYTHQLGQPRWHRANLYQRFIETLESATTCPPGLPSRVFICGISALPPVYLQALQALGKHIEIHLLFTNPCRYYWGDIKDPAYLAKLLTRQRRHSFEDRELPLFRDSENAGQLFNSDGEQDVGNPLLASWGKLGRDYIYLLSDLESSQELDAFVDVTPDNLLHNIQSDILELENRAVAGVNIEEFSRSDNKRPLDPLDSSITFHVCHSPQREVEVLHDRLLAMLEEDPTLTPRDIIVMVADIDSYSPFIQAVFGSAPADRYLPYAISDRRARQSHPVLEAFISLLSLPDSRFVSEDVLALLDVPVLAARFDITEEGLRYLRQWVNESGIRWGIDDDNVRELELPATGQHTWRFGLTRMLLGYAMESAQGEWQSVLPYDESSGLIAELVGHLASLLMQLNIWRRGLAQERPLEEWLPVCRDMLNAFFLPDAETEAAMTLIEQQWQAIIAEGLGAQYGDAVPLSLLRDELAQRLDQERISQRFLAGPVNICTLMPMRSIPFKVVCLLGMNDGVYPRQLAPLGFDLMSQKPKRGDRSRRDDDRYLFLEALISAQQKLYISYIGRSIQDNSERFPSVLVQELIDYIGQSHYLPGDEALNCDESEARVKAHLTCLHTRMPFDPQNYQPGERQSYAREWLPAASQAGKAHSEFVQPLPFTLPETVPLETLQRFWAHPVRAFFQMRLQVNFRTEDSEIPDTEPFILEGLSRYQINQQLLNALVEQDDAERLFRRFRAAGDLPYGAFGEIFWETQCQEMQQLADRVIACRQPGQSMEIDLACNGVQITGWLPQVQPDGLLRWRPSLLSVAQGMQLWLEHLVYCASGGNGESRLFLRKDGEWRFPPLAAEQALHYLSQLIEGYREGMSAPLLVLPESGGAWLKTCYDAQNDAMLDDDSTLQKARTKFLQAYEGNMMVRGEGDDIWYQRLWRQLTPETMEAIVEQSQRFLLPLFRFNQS
Exodeoxyribonuclease V, sequence (P08394 whole entry): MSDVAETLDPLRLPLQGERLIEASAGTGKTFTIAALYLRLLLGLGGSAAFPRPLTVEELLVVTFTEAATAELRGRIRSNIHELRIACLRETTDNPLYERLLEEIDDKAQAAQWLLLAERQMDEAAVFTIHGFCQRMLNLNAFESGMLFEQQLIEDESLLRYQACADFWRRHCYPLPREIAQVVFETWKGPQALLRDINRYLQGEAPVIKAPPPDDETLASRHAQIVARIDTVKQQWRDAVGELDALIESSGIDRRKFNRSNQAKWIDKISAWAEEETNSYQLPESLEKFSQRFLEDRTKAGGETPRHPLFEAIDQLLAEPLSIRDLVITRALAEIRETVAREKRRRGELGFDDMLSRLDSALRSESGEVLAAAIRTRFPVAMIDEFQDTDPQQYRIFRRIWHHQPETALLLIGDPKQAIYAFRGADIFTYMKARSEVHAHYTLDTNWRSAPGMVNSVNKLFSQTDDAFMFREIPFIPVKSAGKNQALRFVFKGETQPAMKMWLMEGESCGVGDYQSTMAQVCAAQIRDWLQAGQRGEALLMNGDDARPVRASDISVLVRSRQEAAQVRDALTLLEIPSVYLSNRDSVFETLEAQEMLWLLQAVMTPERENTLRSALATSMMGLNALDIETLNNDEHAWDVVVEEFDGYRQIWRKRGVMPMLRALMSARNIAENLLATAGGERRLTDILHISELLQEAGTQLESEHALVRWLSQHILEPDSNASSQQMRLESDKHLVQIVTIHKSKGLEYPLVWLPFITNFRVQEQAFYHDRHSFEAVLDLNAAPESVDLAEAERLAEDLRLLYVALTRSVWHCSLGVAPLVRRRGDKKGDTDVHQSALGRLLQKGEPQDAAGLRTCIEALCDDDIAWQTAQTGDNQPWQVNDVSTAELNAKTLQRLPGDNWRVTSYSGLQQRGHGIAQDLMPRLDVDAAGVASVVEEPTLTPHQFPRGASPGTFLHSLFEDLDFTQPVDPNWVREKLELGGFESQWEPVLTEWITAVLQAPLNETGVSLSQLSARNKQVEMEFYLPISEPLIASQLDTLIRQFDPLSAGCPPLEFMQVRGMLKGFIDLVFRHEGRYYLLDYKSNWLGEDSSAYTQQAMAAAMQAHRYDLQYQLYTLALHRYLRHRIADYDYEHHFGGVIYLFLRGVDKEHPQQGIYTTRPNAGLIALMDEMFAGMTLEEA

[19] = DRD fibroblast viability loss – cell-based, non-viral oncogenic, luminescence, dose response (AID 1934); format: functional; settings: Homo sapiens
[20] = molecular target: T2, Short transient receptor potential channel 4 (Mus musculus, UniProt Q9QUQ5); experiment: calcium entry via TRPC4 opening agents – cell-based, HEK293 TRPC4/mu-opioid, Fluo-4 calcium, dose response (AID 434937); format: functional
T2 sequence (Q9QUQ5 whole entry): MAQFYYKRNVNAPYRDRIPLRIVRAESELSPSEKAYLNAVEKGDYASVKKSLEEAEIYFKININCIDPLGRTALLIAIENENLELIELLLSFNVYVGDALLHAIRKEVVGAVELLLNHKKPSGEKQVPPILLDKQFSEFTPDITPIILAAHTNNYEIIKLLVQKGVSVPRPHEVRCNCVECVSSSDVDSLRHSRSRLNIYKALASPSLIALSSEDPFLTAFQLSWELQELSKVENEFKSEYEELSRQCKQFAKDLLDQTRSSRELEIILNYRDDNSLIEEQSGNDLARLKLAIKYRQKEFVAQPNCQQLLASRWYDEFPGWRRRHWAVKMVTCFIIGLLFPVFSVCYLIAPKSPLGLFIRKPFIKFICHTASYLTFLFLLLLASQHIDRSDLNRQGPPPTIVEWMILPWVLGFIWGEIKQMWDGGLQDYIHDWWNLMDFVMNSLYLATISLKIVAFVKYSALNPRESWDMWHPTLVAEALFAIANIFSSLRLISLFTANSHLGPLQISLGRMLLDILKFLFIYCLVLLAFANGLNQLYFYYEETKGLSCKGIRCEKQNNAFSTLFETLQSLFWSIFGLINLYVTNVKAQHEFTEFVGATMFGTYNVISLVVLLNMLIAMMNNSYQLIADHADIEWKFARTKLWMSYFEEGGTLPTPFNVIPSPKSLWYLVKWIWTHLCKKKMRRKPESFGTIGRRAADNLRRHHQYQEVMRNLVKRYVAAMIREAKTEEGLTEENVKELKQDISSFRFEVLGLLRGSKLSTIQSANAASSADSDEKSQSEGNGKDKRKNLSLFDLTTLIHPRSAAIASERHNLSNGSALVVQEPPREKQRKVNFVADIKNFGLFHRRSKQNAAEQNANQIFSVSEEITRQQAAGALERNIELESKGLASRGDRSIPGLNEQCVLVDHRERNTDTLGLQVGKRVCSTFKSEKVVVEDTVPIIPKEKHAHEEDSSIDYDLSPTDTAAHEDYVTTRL

Mu-type opioid receptor = Mu-type opioid receptor (Homo sapiens, UniProt P35372); experiment: Counterscreen for agonists of heterodimerization of the mu 1 (OPRM1) and delta 1 (OPRD1) opioid receptors: Luminescence-based cell-based high throughput dose response assay to identify agonists of OPRM1 homodimerization.; format: functional;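 also: U2OS cells expressing OPRM1 and beta-arrestin as split beta-galactosidase partners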
Mu-type opioid receptor, sequence (P35372 whole entry): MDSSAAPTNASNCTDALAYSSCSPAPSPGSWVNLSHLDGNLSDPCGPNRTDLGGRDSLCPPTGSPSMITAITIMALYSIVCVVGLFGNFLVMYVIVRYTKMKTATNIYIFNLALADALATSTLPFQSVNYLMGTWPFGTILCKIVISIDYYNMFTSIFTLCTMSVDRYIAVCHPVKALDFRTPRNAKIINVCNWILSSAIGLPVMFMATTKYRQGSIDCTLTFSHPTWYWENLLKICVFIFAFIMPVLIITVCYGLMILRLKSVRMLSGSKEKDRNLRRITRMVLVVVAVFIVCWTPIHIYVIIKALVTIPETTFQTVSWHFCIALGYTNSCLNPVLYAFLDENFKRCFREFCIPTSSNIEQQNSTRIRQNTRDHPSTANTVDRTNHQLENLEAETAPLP

[21] = molecular target: Delta-type opioid receptor (Homo sapiens, UniProt P41143); experiment: Counterscreen for agonists of heterodimerization of the mu 1 (OPRM1) and delta 1 (OPRD1) opioid receptors: Luminescence-based cell-based high throughput dose response assay to identify agonists of OPRD1 homodimerization. [Related pubchem assays (depositor defined):AID504326, AID504355, AID504692, AID504904, AID504905]; format: functional
Delta-type opioid receptor, sequence (P41143 whole entry): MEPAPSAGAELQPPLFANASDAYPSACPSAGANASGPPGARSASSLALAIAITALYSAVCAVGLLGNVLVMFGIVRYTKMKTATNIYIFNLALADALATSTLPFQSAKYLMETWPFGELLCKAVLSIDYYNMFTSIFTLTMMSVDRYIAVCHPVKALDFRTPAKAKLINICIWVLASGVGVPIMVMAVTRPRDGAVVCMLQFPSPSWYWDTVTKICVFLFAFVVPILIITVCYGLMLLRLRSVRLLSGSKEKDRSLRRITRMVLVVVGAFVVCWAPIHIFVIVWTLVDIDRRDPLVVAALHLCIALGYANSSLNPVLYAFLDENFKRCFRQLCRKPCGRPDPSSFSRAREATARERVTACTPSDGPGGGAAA

[22] = molecular target: 5-hydroxytryptamine receptor 5A (Homo sapiens, UniProt P47898); experiment: Counterscreen for agonists of OPRM1-OPRD1 heterodimerization: luminescence-based cell-based high throughput dose response assay to identify agonists of 5-hydroxytryptamine (serotonin) 5A receptor (HTR5A). [Related pubchem assays (depositor defined):AID504326, AID504355, AID504692, AID504904, AID504905]; format: functional
5-hydroxytryptamine receptor 5A, sequence (P47898 whole entry): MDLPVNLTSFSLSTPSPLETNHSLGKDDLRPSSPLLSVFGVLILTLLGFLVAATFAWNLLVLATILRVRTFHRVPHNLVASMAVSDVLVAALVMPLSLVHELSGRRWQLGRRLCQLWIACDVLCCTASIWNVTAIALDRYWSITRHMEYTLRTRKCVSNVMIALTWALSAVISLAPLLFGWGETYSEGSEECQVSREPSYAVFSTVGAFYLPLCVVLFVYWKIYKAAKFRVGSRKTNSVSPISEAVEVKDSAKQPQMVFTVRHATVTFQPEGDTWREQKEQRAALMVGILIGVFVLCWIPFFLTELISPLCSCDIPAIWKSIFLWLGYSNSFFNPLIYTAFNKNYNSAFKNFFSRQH

[23] = molecular target: T3, Tyrosine-protein phosphatase non-receptor type 7 (Homo sapiens, UniProt P35236); format: functional
T3 sequence (P35236 whole entry): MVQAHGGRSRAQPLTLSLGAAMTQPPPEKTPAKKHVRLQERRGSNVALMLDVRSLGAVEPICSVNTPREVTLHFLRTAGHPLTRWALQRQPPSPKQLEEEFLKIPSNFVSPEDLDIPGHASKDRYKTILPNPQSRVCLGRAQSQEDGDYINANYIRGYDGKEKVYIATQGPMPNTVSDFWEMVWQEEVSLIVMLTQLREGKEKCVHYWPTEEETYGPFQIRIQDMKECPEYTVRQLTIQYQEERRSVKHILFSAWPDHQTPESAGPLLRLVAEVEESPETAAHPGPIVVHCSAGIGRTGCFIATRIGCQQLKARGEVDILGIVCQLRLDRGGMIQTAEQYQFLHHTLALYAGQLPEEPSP

[24] = molecular target: T4, Dual specificity protein phosphatase 6 (Rattus norvegicus, UniProt Q64346); format: functional
T4 sequence (Q64346 whole entry): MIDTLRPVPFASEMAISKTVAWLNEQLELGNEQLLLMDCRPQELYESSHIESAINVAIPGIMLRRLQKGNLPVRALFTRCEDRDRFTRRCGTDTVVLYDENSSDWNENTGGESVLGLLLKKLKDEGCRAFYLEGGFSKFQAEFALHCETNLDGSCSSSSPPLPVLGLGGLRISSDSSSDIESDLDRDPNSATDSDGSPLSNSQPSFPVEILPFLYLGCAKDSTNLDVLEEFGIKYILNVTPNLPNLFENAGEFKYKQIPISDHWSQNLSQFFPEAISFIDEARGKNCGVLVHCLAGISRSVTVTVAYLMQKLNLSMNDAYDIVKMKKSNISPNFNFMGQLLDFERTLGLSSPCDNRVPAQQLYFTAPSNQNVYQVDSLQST

[25] = molecular target: T4, Dual specificity protein phosphatase 6
[26] = molecular target: Glyceraldehyde-3-phosphate dehydrogenase (Homo sapiens, UniProt P04406)
Glyceraldehyde-3-phosphate dehydrogenase, sequence (P04406 whole entry): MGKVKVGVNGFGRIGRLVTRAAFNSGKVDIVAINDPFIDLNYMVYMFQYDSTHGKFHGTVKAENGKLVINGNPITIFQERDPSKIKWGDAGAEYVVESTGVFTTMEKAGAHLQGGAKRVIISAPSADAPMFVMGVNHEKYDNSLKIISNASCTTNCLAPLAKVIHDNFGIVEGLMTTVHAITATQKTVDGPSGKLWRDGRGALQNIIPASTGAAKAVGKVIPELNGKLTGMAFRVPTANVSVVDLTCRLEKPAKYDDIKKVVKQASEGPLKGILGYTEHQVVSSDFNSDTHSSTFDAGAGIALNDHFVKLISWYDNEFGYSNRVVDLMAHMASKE

HEK293 [27] = experiment: cells; settings: Homo sapiens
HEK293 [28] = experiment: cells; settings: Homo sapiens; remark: listed apart in the source
[29] = molecular target: T5, Calpain-2 catalytic subunit (Sus scrofa, UniProt P43367); experiment: m-calpain protease blockers, concentration series – biochemical, fluorogenic peptide substrate, dose response (AID 1420); format: functional
T5 sequence (P43367 whole entry): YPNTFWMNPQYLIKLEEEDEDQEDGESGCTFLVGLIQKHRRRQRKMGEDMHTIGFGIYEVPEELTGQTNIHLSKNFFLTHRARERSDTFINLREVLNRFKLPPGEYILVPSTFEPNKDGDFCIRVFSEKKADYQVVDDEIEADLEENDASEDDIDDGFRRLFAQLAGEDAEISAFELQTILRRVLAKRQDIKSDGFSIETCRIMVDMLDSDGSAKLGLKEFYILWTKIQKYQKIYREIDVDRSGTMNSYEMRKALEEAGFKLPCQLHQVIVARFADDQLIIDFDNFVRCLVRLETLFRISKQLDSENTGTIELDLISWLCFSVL

[30] = molecular target: Glucose-6-phosphate 1-dehydrogenase (Homo sapiens, UniProt P11413); experiment: inhibition of Homo sapiens G6PD, dose series – biochemical, fluorescence, selectivity assay for P. falciparum G6PD inhibitor project, dose response (AID 504792); format: functional
Glucose-6-phosphate 1-dehydrogenase, sequence (P11413 whole entry): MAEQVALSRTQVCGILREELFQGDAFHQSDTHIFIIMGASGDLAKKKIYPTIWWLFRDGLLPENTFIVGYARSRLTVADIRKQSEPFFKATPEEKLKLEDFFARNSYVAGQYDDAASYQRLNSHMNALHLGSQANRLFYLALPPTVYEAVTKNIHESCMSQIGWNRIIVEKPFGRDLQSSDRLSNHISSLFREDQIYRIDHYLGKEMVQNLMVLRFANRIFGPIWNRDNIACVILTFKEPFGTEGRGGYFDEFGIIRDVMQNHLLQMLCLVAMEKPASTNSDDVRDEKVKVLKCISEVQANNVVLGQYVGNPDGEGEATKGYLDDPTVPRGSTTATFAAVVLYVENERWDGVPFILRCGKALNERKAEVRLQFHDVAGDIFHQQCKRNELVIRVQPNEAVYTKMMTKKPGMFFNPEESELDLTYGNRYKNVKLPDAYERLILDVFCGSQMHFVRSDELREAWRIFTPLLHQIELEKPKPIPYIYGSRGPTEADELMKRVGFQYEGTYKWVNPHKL

## Oc1ccccc1N=Nc1nc(-c2ccccc2)c(-c2ccccc2)[nH]1
[1]
  EC50: 507 nM (active)
BJ [2]
  EC50: 643 nM (inconclusive)
cells
  EC50: 355 nM (active)
Vero [3]
  CC50: 60 nM (active)
[4]
  EC50: 278 nM (active)
[5]
  EC50: < 100 nM (active)
Streptococcus
  EC50: 1050 nM (active)
[6]
  IC50: 820 nM (active)
Vero [7]
  IC50: > 25000 nM (active)
BJ [8]
  EC50: 951 nM (active)
BJ [9]
  EC50: 1670 nM (active)
[10]
  EC50: 282 nM (active)
[11]
  IC50: > 119000 nM (inactive)
[12]
  IC50: > 80000 nM (inactive)
[13]
  AC50: 2290 nM (active)
BJ [14]
  EC50: 118 nM (active)
[15]
  EC50: < 100 nM (active)
[16]
  EC50: 26000 nM (active)
[17]
  IC50: 533 nM (active)
[18]
  EC50: 103 nM (active)
Exodeoxyribonuclease V
  IC50: > 119000 nM (inactive)
[19]
  EC50: 515 nM (active)

## COc1ccc(C(CNC(=O)CSc2ccccc2C)N(C)C)cc1 (centres undefined)
[20]
  EC50: 237 nM (active)
Mu-type opioid receptor
  EC50: > 92500 nM (inactive)
[21]
  EC50: > 92500 nM (inactive)
[22]
  EC50: > 92500 nM (inactive)

## Cn1c(=O)n(-c2ccccc2)c(=O)n([C@@H](Cc2ccccc2)C(N)=O)c1=O
[23]
  IC50: > 100000 nM (not active)
[24]
  IC50: > 100000 nM (inactive)
[25]
  IC50: > 100000 nM (inactive)
[26]
  IC50: > 100000 nM (not active)

## Cn1c(=O)n(C)c2cc(S(=O)(=O)N3CCCc4ccccc43)ccc21
HEK293 [27]
  EC50: > 59600 nM (inactive)
HEK293 [28]
  EC50: > 59600 nM (inactive)
[29]
  IC50: 7050 nM (not active)

## CCOc1ccc(N(CC(=O)N/N=C/c2cc([N+](=O)[O-])ccc2Cl)S(C)(=O)=O)cc1
[30]
  IC50: > 80000 nM (inactive)
